Data as given in patent publication US12559492B2, “BRAF degraders” (C4 Therapeutics, Inc., priority 2020, dated 2026).

Target: BRAF^V600E protein (Homo sapiens, UniProt P15056, V600E)
Assay: HiBiT cellular BRAF V600E degradation assay
Format: cell-based
Details: 24 h incubation; for DC50: A375.10 cells (HiBiT tag knocked in at N-terminal of BRAF V600E), concentration at which 50% of total cellular BRAF V600E is degraded; for Emax: A375.10 cells, Emax = amount of residual protein remaining in the cell after compound treatment, read-out: HiBit 24 h Emax
From the text: DMEM no-phenol red medium supplemented with L-glutamine was purchased from (Corning). Fetal bovine serum (FBS) was purchased from Gibco (Grand Island, NY, USA). Nano-Glo® HiBiT Lytic Assay Buffer & Reagents were purchased from Promega (Madison, WI, USA). […] Cell culture flasks and 384-well black flat-bottom polystyrene TC-treated microplates were acquired from Corning (Corning, NY, USA).
HiBiT Cellular BRAFv^600E Degradation Assay
Prior to the assay, the A375.10 cell line is maintained in DMEM no-phenol red medium supplemented with 10% fetal bovine serum (FBS). […] Briefly, test compounds were added to the 384-well plate from a top concentration of 10 μM with 11 half log dilutions of compound, plated in duplicate. Then, 30 uL of a suspension of A375.10 cell lines was dispensed into columns 1-24 of the 384-well plates at a cell density of 7500 cells per well. The plates were kept at 37° C. with 5% CO2 for the duration of the assay (6 or 24 hr). After the desired incubation time with compound, 30 uL of Nano-Glo® HiBiT Lytic Buffer containing LgBiT protein (diluted 1:100) and luminescence substrate (diluted 1:50) were added to the cells in columns 1-23 of the assay plate. The plate was the incubated for 30 min on the bench at room temperature. Finally, HiBiT luminescence signal was acquired on EnVision™ Multilabel Reader (PerkinElmer, Santa Clara, CA, USA).
Quantification of luminescence responses measured in the presence of compound were normalized to a high signal/no degradation control (untreated cells+lytic detection reagent) and a low signal/full degradation control (untreated cells, no lytic detection reagent). Data were analyzed with a 4-parameter logistic fit to generate sigmoidal dose-response curves. […] The Emax, or maximum effect of each compound, represents the amount of residual protein remaining in the cell following compound treatment.

Sequence of BRAF^V600E protein (P15056 whole entry V600E): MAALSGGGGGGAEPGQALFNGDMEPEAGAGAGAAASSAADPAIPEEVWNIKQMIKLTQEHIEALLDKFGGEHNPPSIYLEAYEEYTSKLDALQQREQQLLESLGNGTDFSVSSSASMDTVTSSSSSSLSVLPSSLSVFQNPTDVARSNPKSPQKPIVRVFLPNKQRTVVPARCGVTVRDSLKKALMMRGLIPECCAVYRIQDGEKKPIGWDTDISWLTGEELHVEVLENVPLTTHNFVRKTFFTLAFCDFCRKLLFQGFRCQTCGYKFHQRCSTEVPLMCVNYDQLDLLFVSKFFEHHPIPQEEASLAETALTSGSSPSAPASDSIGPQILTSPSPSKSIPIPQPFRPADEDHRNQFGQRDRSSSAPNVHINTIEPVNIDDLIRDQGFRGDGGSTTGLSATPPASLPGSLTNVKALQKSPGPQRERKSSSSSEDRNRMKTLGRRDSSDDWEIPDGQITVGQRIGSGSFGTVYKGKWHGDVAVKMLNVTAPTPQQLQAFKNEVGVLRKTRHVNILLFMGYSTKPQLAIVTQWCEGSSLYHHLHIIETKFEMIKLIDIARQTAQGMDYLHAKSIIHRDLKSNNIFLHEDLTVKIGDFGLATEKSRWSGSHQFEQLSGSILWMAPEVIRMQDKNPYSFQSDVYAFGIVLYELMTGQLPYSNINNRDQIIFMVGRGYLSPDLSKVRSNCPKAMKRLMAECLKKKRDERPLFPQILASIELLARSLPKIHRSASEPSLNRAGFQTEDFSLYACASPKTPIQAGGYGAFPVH

DC50 [nM]	Emax [%]	SMILES
4.55	7	CCN(C)S(=O)(=O)Nc1ccc(F)c(C(=O)c2c[nH]c3ncc(-c4cnc(N5CCN(C(=O)CN6CCC(c7ccc(N[C@@H]8CCC(=O)NC8=O)cc7)CC6)CC5)nc4)cc23)c1F [Example 26, 5-[2-[4-[2-[4-[4-[[(3R)-2,6-dioxo-3-piperidyl]amino]phenyl]-1-piperidyl]acetyl]piperazin-1-yl]pyrimidin-5-yl]-3-[3-[[ethyl(methyl)sulfamoyl]amino]-2,6-difluoro-benzoyl]-1H-pyrrolo[2,3-b]pyridine]
2.09	10.8	CCN(C)S(=O)(=O)Nc1ccc(F)c(C(=O)c2c[nH]c3ncc(-c4cnc(N5CCN(C(=O)CN6CCC(c7ccc8c(C9CCC(=O)NC9=O)nn(C)c8c7)CC6)CC5)nc4)cc23)c1F (stereo not drawn) [Example 27, 3-(2,6-dioxo-3-piperidyl)-6-[1-[2-[4-[5-[3-[3-[[ethyl(methyl)sulfamoyl]amino]-2,6-difluoro-benzoyl]-1H-pyrrolo[2,3-b]pyridin-5-yl]pyrimidin-2-yl]piperazin-1-yl]-2-oxo-ethyl]-4-piperidyl]-1-methyl-indazole]
5.81	12	CCN(C)S(=O)(=O)Nc1ccc(F)c(C(=O)c2c[nH]c3ncc(-c4cnc(N5CCN(C(=O)CN6CCC(Nc7ccc8c(C9CCC(=O)NC9=O)nn(C)c8c7)CC6)CC5)nc4)cc23)c1F (stereo not drawn) [Example 28, 3-(2,6-dioxo-3-piperidyl)-6-[[1-[2-[4-[5-[3-[3-[[ethyl(methyl)sulfamoyl]amino]-2,6-difluoro-benzoyl]-1H-pyrrolo[2,3-b]pyridin-5-yl]pyrimidin-2-yl]piperazin-1-yl]-2-oxo-ethyl]-4-piperidyl]amino]-1-methyl-indazole]
2.76	7.67	CCN(C)S(=O)(=O)Nc1ccc(F)c(C(=O)c2c[nH]c3ncc(-c4cnc(N5CCN(C(=O)CN6CCC(c7ccc(NC8CCC(=O)NC8=O)c(F)c7)CC6)CC5)nc4)cc23)c1F (stereo not drawn) [Example 29, 5-[2-[4-[2-[4-[4-[(2,6-dioxo-3-piperidyl)amino]-3-fluoro-phenyl]-1-piperidyl]acetyl]piperazin-1-yl]pyrimidin-5-yl]-3-[3-[[ethyl(methyl)sulfamoyl]amino]-2,6-difluoro-benzoyl]-1H-pyrrolo[2,3-b]pyridine]
4.27	7.84	CCN(C)S(=O)(=O)Nc1ccc(F)c(C(=O)c2c[nH]c3ncc(-c4cnc(N5CCN(C(=O)CN6CCC(c7ccc(NC8CCC(=O)NC8=O)cc7)C(F)(F)C6)CC5)nc4)cc23)c1F (stereo not drawn) [Example 30, 5-[2-[4-[2-[4-[4-[(2,6-dioxo-3-piperidyl)amino]phenyl]-3,3-difluoro-1-piperidyl]acetyl]piperazin-1-yl]pyrimidin-5-yl]-3-[3-[[ethyl(methyl)sulfamoyl]amino]-2,6-difluoro-benzoyl]-1H-pyrrolo[2,3-b]pyridine]
30	21.2	CCN(C)S(=O)(=O)Nc1ccc(F)c(C(=O)c2c[nH]c3ncc(-c4cnc(N5CCN(C(=O)CC6CCN(c7ccc(NC8CCC(=O)NC8=O)cc7)CC6)CC5)nc4)cc23)c1F (stereo not drawn) [Example 31, 5-[2-[4-[2-[1-[4-[(2,6-dioxo-3-piperidyl)amino]phenyl]-4-piperidyl]acetyl]piperazin-1-yl]pyrimidin-5-yl]-3-[3-[[ethyl(methyl)sulfamoyl]amino]-2,6-difluoro-benzoyl]-1H-pyrrolo[2,3-b]pyridine]
35	10.6	CCN(C)S(=O)(=O)Nc1ccc(F)c(C(=O)c2c[nH]c3ncc(-c4cnc(N5CCN(C(=O)CN6CCC(c7ccc(CN8CCC(=O)NC8=O)cc7)CC6)CC5)nc4)cc23)c1F [Example 32, 5-[2-[4-[2-[4-[4-[(2,4-dioxohexahydropyrimidin-1-yl)methyl]phenyl]-1-piperidyl]acetyl]piperazin-1-yl]pyrimidin-5-yl]-3-[3-[[ethyl(methyl)sulfamoyl]amino]-2,6-difluoro-benzoyl]-1H-pyrrolo[2,3-b]pyridine]
2.51	19.2	CCN(C)S(=O)(=O)Nc1ccc(F)c(C(=O)c2c[nH]c3ncc(-c4cnc(N5CCN(C(=O)CN6CCC(c7ccc8c(c7)n(C)c(=O)n8C7CCC(=O)NC7=O)CC6)CC5)nc4)cc23)c1F (stereo not drawn) [Example 33, 1-(2,6-dioxo-3-piperidyl)-5-[1-[2-[4-[5-[3-[3-[[ethyl(methyl)sulfamoyl]amino]-2,6-difluoro-benzoyl]-1H-pyrrolo[2,3-b]pyridin-5-yl]pyrimidin-2-yl]piperazin-1-yl]-2-oxo-ethyl]-4-piperidyl]-3-methyl-2-oxo-benzimidazole]
2.52	8.14	CCN(C)S(=O)(=O)Nc1ccc(F)c(C(=O)c2c[nH]c3ncc(-c4cnc(N5CCN(C(=O)CN6CCC(c7ccc8c(N9CCC(=O)NC9=O)nn(C)c8c7)CC6)CC5)nc4)cc23)c1F [Example 34, 3-(2,4-dioxohexahydropyrimidin-1-yl)-6-[1-[2-[4-[5-[3-[3-[[ethyl(methyl)sulfamoyl]amino]-2,6-difluoro-benzoyl]-1H-pyrrolo[2,3-b]pyridin-5-yl]pyrimidin-2-yl]piperazin-1-yl]-2-oxo-ethyl]-4-piperidyl]-1-methyl-indazole]
17.2	9.14	CCN(C)S(=O)(=O)Nc1ccc(F)c(C(=O)c2c[nH]c3ncc(-c4cnc(N5CCN(C(=O)CN6CCC(N7CCN(C8CCC(=O)NC8=O)C(=O)C7)CC6)CC5)nc4)cc23)c1F (stereo not drawn) [Example 37, 5-[2-[4-[2-[4-[4-(2,6-dioxo-3-piperidyl)-3-oxo-piperazin-1-yl]-1-piperidyl]acetyl]piperazin-1-yl]pyrimidin-5-yl]-3-[3-[[ethyl(methyl)sulfamoyl]amino]-2,6-difluoro-benzoyl]-1H-pyrrolo[2,3-b]pyridine]
4.44	13.4	CCN(C)S(=O)(=O)Nc1ccc(F)c(C(=O)c2c[nH]c3ncc(-c4cnc(N5CCN(C(=O)CC6(O)CCN(c7ccc(NC8CCC(=O)NC8=O)cc7)CC6)CC5)nc4)cc23)c1F (stereo not drawn) [Example 38, 5-[2-[4-[2-[1-[4-[(2,6-dioxo-3-piperidyl)amino]phenyl]-4-hydroxy-4-piperidyl]acetyl]piperazin-1-yl]pyrimidin-5-yl]-3-[3-[[ethyl(methyl)sulfamoyl]amino]-2,6-difluoro-benzoyl]-1H-pyrrolo[2,3-b]pyridine]
10.2	8.74	CCN(C)S(=O)(=O)Nc1ccc(F)c(C(=O)c2c[nH]c3ncc(-c4cnc(N5CCN(C(=O)CN6CCC(c7ccc(NC8CCC(=O)NC8=O)cc7C(F)F)CC6)CC5)nc4)cc23)c1F (stereo not drawn) [Example 39, 5-[2-[4-[2-[4-[2-(difluoromethyl)-4-[(2,6-dioxo-3-piperidyl)amino]phenyl]-1-piperidyl]acetyl]piperazin-1-yl]pyrimidin-5-yl]-3-[3-[[ethyl(methyl)sulfamoyl]amino]-2,6-difluoro-benzoyl]-1H-pyrrolo[2,3-b]pyridine]
11.7	8.42	CCN(C)S(=O)(=O)Nc1ccc(F)c(C(=O)c2c[nH]c3ncc(-c4cnc(N5CCN(C(=O)CN6CCC(c7ccc(NC8CCC(=O)NC8=O)cc7C#N)CC6)CC5)nc4)cc23)c1F (stereo not drawn) [Example 40, 5-[2-[4-[2-[4-[2-cyano-4-[(2,6-dioxo-3-piperidyl)amino]phenyl]-1-piperidyl]acetyl]piperazin-1-yl]pyrimidin-5-yl]-3-[3-[[ethyl(methyl)sulfamoyl]amino]-2,6-difluoro-benzoyl]-1H-pyrrolo[2,3-b]pyridine]
24.5	9.48	CCN(C)S(=O)(=O)Nc1ccc(F)c(C(=O)c2c[nH]c3ncc(-c4cnc(N5CCN(C(=O)CN6CCC(c7c(F)cc(OC8CCC(=O)NC8=O)cc7F)CC6)CC5)nc4)cc23)c1F (stereo not drawn) [Example 41, 5-[2-[4-[2-[4-[4-[(2,6-dioxo-3-piperidyl)oxy]-2,6-difluoro-phenyl]-1-piperidyl]acetyl]piperazin-1-yl]pyrimidin-5-yl]-3-[3-[[ethyl(methyl)sulfamoyl]amino]-2,6-difluoro-benzoyl]-1H-pyrrolo[2,3-b]pyridine]
3.41	11.5	CCN(C)S(=O)(=O)Nc1ccc(F)c(C(=O)c2c[nH]c3ncc(-c4cnc(N5CCN(C(=O)CC6CCN(c7ccc(NC8CCC(=O)NC8=O)cc7F)CC6)CC5)nc4)cc23)c1F (stereo not drawn) [Example 42, 5-[2-[4-[2-[1-[4-[(2,6-dioxo-3-piperidyl)amino]-2-fluoro-phenyl]-4-piperidyl]acetyl]piperazin-1-yl]pyrimidin-5-yl]-3-[3-[[ethyl(methyl)sulfamoyl]amino]-2,6-difluoro-benzoyl]-1H-pyrrolo[2,3-b]pyridine]
